Publication PMC10747202, “Computational and Experimental Drug Repurposing of FDA-Approved Compounds Targeting the Cannabinoid Receptor CB1” (Pharmaceuticals, 2023)

Experiments:
Details in all cases: read-out: % displacement at 10 μM
[1] = target: T1, cannabinoid receptor 1 (CB1R) (Mus musculus, UniProt P47746); assay: [3H]CP55, […] competition radioligand binding, mouse brain membranes, […] (weak)
T1 construct: gene Cnr1; native receptor in mouse brain membranes

[2] = target: T1, cannabinoid receptor 1 (CB1R); assay: [3H]CP55, […] competition radioligand binding, mouse brain membranes, […]
[3] = target: T1, cannabinoid receptor 1 (CB1R); assay: [3H]CP55, […] competition radioligand binding, mouse brain membranes, […] (positive control)

T1 sequence (P47746 whole entry): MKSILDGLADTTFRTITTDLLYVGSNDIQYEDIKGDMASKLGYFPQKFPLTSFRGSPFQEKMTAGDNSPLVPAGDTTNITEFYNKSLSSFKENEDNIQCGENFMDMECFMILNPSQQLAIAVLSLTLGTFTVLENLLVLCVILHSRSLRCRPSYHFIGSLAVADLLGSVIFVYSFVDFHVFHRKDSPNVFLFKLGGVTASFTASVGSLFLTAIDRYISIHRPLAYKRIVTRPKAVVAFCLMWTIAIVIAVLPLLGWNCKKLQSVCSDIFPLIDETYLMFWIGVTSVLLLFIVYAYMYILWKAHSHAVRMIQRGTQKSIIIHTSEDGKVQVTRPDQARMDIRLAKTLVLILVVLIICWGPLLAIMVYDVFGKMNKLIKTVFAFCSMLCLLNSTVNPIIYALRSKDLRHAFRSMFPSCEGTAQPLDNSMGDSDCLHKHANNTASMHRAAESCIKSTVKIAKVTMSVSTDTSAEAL

| Structure (SMILES) | inhibition at 10 µM [1] [%] | inhibition at 10 µM [2] [%] | other results |
| --- | --- | --- | --- |
| Nc1nc(N)c2nc(CNc3ccc(C(=O)N[C@@H](CCC(=O)O)C(=O)O)cc3)cnc2n1 [APGA, Aminopterin] | ~30 | – | – |
| COc1ccc(CN=c2[nH]c(N3CCC[C@H]3CO)ncc2C(=O)NCc2ncccn2)cc1Cl [Avanafil] | ~30 | – | – |
| CN(Cc1cnc2nc(N)nc(N)c2n1)c1ccc(C(=O)N[C@@H](CCC(=O)O)C(=O)O)cc1 [Methotrexate] | – | ~50 | – |
| CCCCCCCCCCCCCCCCOP(=O)([O-])OCC[N+](C)(C)C [Miltefosine] | – | ~60 | – |
| O=C(c1ccc(OCCN2CCCCC2)cc1)c1c(-c2ccc(O)cc2)sc2cc(O)ccc12 [Raloxifene] | – | – | inhibition at 10 µM [3]: > 50% |
| Cc1nnc(C(=O)NC(C)(C)c2nc(C(=O)NCc3ccc(F)cc3)c(O)c(=O)n2C)o1 [Raltegravir] | – | ~80 | – |
| COC(=O)N(C)c1c(N)nc(-c2nn(Cc3ccccc3F)c3ncccc23)nc1N [Riociguat] | ~20 | – | – |
| CCCCC(=O)N(Cc1ccc(-c2ccccc2-c2nnn[nH]2)cc1)[C@H](C(=O)O)C(C)C [Valsartan] | ~30 | – | – |
